Several values for one entry are separate records, joined by “and”; a condition that tells them apart may be missing. Identical values can stand only once. Toxic doses and inconclusive results are not listed. Cut-off read from the data, not from the text of the source: active = T/C of 150% or more; inactive = T/C below 125%.
Tested on: L1210 leukemia ip in BDF1 mice, survival T/C
Assay: NCI In Vivo Anticancer Drug Screen. Data for tumor model L1210 Leukemia (intraperitoneal) in B6D2F1 (BDF1) mice
Conditions: endpoint: mean survival time, higher = longer survival
In short: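 Tumor cells were implanted, animals were treated, and survival was followed. The result divides the treated measurement by the vehicle-control measurement.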

[1] = dose: 50.0 mg/kg/injection, schedule: Q01DX009 (ip), vehicle: Klucel (hydroxypropylcellulose) (HPC)
[2] = dose: 100.0 mg/kg/injection, schedule: Q01DX009 (ip), vehicle: Klucel (hydroxypropylcellulose) (HPC)
[3] = dose: 200.0 mg/kg/injection, schedule: Q01DX009 (ip), vehicle: Klucel (hydroxypropylcellulose) (HPC)
[4] = dose: 100.0 mg/kg/injection, schedule: Q04DX003 (ip), vehicle: Klucel (hydroxypropylcellulose) (HPC)
[5] = dose: 100.0 mg/kg/injection, schedule: Q04DX002 (ip), vehicle: Klucel (hydroxypropylcellulose) (HPC)
[6] = dose: 100.0 mg/kg/injection, schedule: Q04DX003 (ip), vehicle: saline with Tween-80
[7] = dose: 200.0 mg/kg/injection, schedule: Q04DX003 (ip), vehicle: saline with Tween-80
[8] = dose: 400.0 mg/kg/injection, schedule: Q04DX003 (ip), vehicle: saline with Tween-80
[9] = dose: 100.0 mg/kg/injection, schedule: Q01DX001 (ip), vehicle: saline
[10] = dose: 200.0 mg/kg/injection, schedule: Q01DX001 (ip), vehicle: saline
[11] = dose: 400.0 mg/kg/injection, schedule: Q01DX001 (ip), vehicle: saline

Measured: T/C

Cc1ccc(OC/C=C/CS(=O)(=O)c2ccc(Cl)cc2)cc1
inactive: [1] 98 % of control | dose: 75.0 mg/kg/injection, schedule: Q01DX001 (ip), vehicle: Klucel (hydroxypropylcellulose) (HPC) 96 % of control | [2] 95 % of control | dose: 150.0 mg/kg/injection, schedule: Q01DX001 (ip), vehicle: Klucel (hydroxypropylcellulose) (HPC) 96 % of control | [3] 98 % of control | dose: 300.0 mg/kg/injection, schedule: Q01DX001 (ip), vehicle: Klucel (hydroxypropylcellulose) (HPC) 94 % of control

CN(C)CCCNc1c2ccccc2nc2ccccc12
inactive: dose: 5.0 mg/kg/injection, schedule: Q01DX001 (ip), vehicle: saline 109 % of control | dose: 10.0 mg/kg/injection, schedule: Q01DX001 (ip), vehicle: saline 104 % of control | dose: 20.0 mg/kg/injection, schedule: Q01DX001 (ip), vehicle: saline 98 % of control | dose: 40.0 mg/kg/injection, schedule: Q01DX001 (ip), vehicle: saline 91 % of control

CCCCCCCSCCSCCSCCCCCCC
inactive: [4] 101 % of control | dose: 200.0 mg/kg/injection, schedule: Q04DX003 (ip), vehicle: Klucel (hydroxypropylcellulose) (HPC) 95 % of control | dose: 400.0 mg/kg/injection, schedule: Q04DX003 (ip), vehicle: Klucel (hydroxypropylcellulose) (HPC) 95 % of control

Clc1ccc(SCSc2nc3ccccc3s2)cc1
inactive: dose: 25.0 mg/kg/injection, schedule: Q04DX002 (ip), vehicle: Klucel (hydroxypropylcellulose) (HPC) 105 % of control | dose: 50.0 mg/kg/injection, schedule: Q04DX002 (ip), vehicle: Klucel (hydroxypropylcellulose) (HPC) 86 % of control | [5] 93 % of control

O=C(O)CCc1nc2ccccc2[nH]1
inactive: dose: 75.0 mg/kg/injection, schedule: Q01DX009 (ip), vehicle: Klucel (hydroxypropylcellulose) (HPC) 107 % of control | dose: 150.0 mg/kg/injection, schedule: Q01DX009 (ip), vehicle: Klucel (hydroxypropylcellulose) (HPC) 100 % of control | dose: 300.0 mg/kg/injection, schedule: Q01DX009 (ip), vehicle: Klucel (hydroxypropylcellulose) (HPC) 104 % of control

CC1CCCCN1P(=[Se])(c1ccccc1)N1CCCCC1C (stereo not given)
inactive: dose: 25.0 mg/kg/injection, schedule: Q04DX003 (ip), vehicle: Klucel (hydroxypropylcellulose) (HPC) 97 % of control | dose: 50.0 mg/kg/injection, schedule: Q04DX003 (ip), vehicle: Klucel (hydroxypropylcellulose) (HPC) 103 % of control | [4] 100 % of control and 90 % of control

O=C1CSCC(=O)O1
inactive: [1] 97 % of control | [2] 89 % of control | [3] 86 % of control

CC(=O)Nc1cccc(NC(C)=O)n1
inactive: [6] 94 % of control | [7] 104 % of control | [8] 100 % of control

COc1cc([N+](=O)[O-])c2nc(Cl)ccc2c1
inactive: dose: 100.0 mg/kg/injection, schedule: Q01DX001 (ip), vehicle: carboxymethylcellulose (CMC) 100 % of control | dose: 200.0 mg/kg/injection, schedule: Q01DX001 (ip), vehicle: carboxymethylcellulose (CMC) 88 % of control | dose: 400.0 mg/kg/injection, schedule: Q01DX001 (ip), vehicle: carboxymethylcellulose (CMC) 97 % of control

CCN1c2ccccc2C(Cl)(c2ccc(N(C)C)cc2)c2ccccc21
inactive: dose: 1.8 mg/kg/injection, schedule: Q03HX024 (ip), vehicle: saline 96 % of control | dose: 2.6 mg/kg/injection, schedule: Q03HX024 (ip), vehicle: saline 88 % of control | dose: 3.9 mg/kg/injection, schedule: Q03HX024 (ip), vehicle: saline 95 % of control | dose: 5.9 mg/kg/injection, schedule: Q03HX024 (ip), vehicle: saline 101 % of control | dose: 6.25 mg/kg/injection, schedule: Q01DX009 (ip), vehicle: saline 93 % of control | dose: 6.25 mg/kg/injection, schedule: Q04DX003 (ip), vehicle: saline 95 % of control | dose: 8.8 mg/kg/injection, schedule: Q01DX009 (ip), vehicle: saline 101 % of control | dose: 8.8 mg/kg/injection, schedule: Q03HX024 (ip), vehicle: saline 101 % of control and 104 % of control | dose: 12.5 mg/kg/injection, schedule: Q01DX001 (ip), vehicle: saline 101 % of control | dose: 12.5 mg/kg/injection, schedule: Q01DX009 (ip), vehicle: saline 115 % of control | dose: 12.5 mg/kg/injection, schedule: Q04DX003 (ip), vehicle: saline 108 % of control | dose: 13.0 mg/kg/injection, schedule: Q01DX009 (ip), vehicle: saline 105 % of control | dose: 18.0 mg/kg/injection, schedule: Q01DX001 (ip), vehicle: saline 103 % of control | dose: 18.0 mg/kg/injection, schedule: Q04DX003 (ip), vehicle: saline 104 % of control | dose: 20.0 mg/kg/injection, schedule: Q01DX009 (ip), vehicle: saline 106 % of control | dose: 25.0 mg/kg/injection, schedule: Q01DX001 (ip), vehicle: saline 111 % of control | dose: 25.0 mg/kg/injection, schedule: Q01DX009 (ip), vehicle: saline 112 % of control | dose: 25.0 mg/kg/injection, schedule: Q04DX003 (ip), vehicle: saline 104 % of control | dose: 26.0 mg/kg/injection, schedule: Q01DX001 (ip), vehicle: saline 103 % of control | dose: 26.0 mg/kg/injection, schedule: Q04DX003 (ip), vehicle: saline 102 % of control | dose: 30.0 mg/kg/injection, schedule: Q01DX009 (ip), vehicle: saline 98 % of control | dose: 39.0 mg/kg/injection, schedule: Q01DX001 (ip), vehicle: saline 104 % of control | dose: 39.0 mg/kg/injection, schedule: Q04DX003 (ip), vehicle: saline 103 % of control

CC1CC(C(C)CC(=O)O)C(=O)O1 (stereo not given)
inactive: [9] 102 % of control | dose: 100.0 mg/kg/injection, schedule: Q04DX003 (ip), vehicle: saline 111 % of control | [10] 95 % of control | dose: 200.0 mg/kg/injection, schedule: Q04DX003 (ip), vehicle: saline 108 % of control | [11] 97 % of control | dose: 400.0 mg/kg/injection, schedule: Q04DX003 (ip), vehicle: saline 101 % of control

Cc1ccc(S(=O)(=O)NC(c2ccccc2)(c2ccccc2)c2ccccc2)cc1
inactive: dose: 100.0 mg/kg/injection, schedule: Q01DX009 (ip), vehicle: saline with Tween-80 96 % of control | dose: 100.0 mg/kg/injection, schedule: Q04DX003 (ip), vehicle: acetone 96 % of control | dose: 200.0 mg/kg/injection, schedule: Q01DX009 (ip), vehicle: saline with Tween-80 88 % of control | dose: 200.0 mg/kg/injection, schedule: Q04DX003 (ip), vehicle: acetone 95 % of control | dose: 400.0 mg/kg/injection, schedule: Q01DX009 (ip), vehicle: saline with Tween-80 93 % of control | dose: 400.0 mg/kg/injection, schedule: Q04DX003 (ip), vehicle: acetone 96 % of control

Cc1cccc(C[P+](C/C=C/c2ccccc2)(c2ccccc2)c2ccccc2)c1
inactive: dose: 6.25 mg/kg/injection, schedule: Q04DX003 (ip), vehicle: Klucel (hydroxypropylcellulose) (HPC) 92 % of control | dose: 12.5 mg/kg/injection, schedule: Q04DX003 (ip), vehicle: Klucel (hydroxypropylcellulose) (HPC) 92 % of control

O=C(O)C1CCC(=O)N1C(=O)OCc1ccccc1 (stereo not given)
inactive: [6] 100 % of control | [7] 97 % of control | [8] 95 % of control

O=C(/C=C/c1ccc(Cl)c(Cl)c1)c1ccccc1[N+](=O)[O-]
inactive: [2] 103 % of control | [3] 97 % of control | dose: 400.0 mg/kg/injection, schedule: Q01DX009 (ip), vehicle: Klucel (hydroxypropylcellulose) (HPC) 92 % of control

CN=C1N[N+]2=CCSCC2(C)S1 (stereo not given)
inactive: dose: 0.2 mg/kg/injection, schedule: Q03HX024 (ip), vehicle: saline 90 % of control | dose: 0.39 mg/kg/injection, schedule: Q03HX024 (ip), vehicle: saline 98 % of control | dose: 0.78 mg/kg/injection, schedule: Q03HX024 (ip), vehicle: saline 98 % of control | dose: 1.56 mg/kg/injection, schedule: Q03HX024 (ip), vehicle: saline 95 % of control | dose: 3.13 mg/kg/injection, schedule: Q03HX024 (ip), vehicle: saline 105 % of control

Cc1ccc(NC(=O)COc2ccccc2)c(C)c1
inactive: [5] 107 % of control | dose: 200.0 mg/kg/injection, schedule: Q04DX002 (ip), vehicle: Klucel (hydroxypropylcellulose) (HPC) 104 % of control | dose: 400.0 mg/kg/injection, schedule: Q04DX002 (ip), vehicle: Klucel (hydroxypropylcellulose) (HPC) 100 % of control
